These results are taken from paper PMC4537572, “Cellobionic acid utilization: from Neurospora crassa to Saccharomyces cerevisiae” (Biotechnology for Biofuels, 2015).

Assay [1] concerns the target T1, S. cerevisiae gluconokinase (YDR248C) (Saccharomyces cerevisiae, UniProt Q03786).
T1 construct: full ORF with C-terminal His6-tag, expressed in and purified from S. cerevisiae
T1 sequence (Q03786 1-193): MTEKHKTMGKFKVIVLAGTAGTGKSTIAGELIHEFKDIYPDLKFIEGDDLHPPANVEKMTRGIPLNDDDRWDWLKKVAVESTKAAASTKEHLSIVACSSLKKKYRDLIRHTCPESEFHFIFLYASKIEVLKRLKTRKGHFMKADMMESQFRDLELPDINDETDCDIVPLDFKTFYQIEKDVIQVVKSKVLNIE
Briefly: gluconokinase assay, HPAEC of products. It is filed as biochemical. The note with it: 1 mM gluconate, 5 mM ATP, 0.2 μM enzyme, 1x PBS, 30 °C, 30 min.

Assay [2] concerns the target T2, CBT-1 (NCU05853) (Neurospora crassa, UniProt Q7S555).
T2 construct: expressed in S. cerevisiae from plasmid pRS426_NCU05853
Description: yeast cell-based uptake assay, HPAEC of remaining sugar. The note with it: pH 6.0, 30 °C, 30 min; 5 mM MES, 100 mM NaCl; S. cerevisiae cells expressing the transporter. From the text: yeast cell-based uptake assay, HPAEC of remaining sugar on CBT-1 (NCU05853) | only NCU05853 […] was capable of transporting cellobionic acid into the cell

Assay [3] has as its target CAP (NCU09425) (Neurospora crassa, UniProt Q7S0S2). The note with it: 2 mM cellobionate, 0.5 μM enzyme, 1x PBS, 30 °C, 30 min.

CAP (NCU09425), sequence (Q7S0S2 whole entry): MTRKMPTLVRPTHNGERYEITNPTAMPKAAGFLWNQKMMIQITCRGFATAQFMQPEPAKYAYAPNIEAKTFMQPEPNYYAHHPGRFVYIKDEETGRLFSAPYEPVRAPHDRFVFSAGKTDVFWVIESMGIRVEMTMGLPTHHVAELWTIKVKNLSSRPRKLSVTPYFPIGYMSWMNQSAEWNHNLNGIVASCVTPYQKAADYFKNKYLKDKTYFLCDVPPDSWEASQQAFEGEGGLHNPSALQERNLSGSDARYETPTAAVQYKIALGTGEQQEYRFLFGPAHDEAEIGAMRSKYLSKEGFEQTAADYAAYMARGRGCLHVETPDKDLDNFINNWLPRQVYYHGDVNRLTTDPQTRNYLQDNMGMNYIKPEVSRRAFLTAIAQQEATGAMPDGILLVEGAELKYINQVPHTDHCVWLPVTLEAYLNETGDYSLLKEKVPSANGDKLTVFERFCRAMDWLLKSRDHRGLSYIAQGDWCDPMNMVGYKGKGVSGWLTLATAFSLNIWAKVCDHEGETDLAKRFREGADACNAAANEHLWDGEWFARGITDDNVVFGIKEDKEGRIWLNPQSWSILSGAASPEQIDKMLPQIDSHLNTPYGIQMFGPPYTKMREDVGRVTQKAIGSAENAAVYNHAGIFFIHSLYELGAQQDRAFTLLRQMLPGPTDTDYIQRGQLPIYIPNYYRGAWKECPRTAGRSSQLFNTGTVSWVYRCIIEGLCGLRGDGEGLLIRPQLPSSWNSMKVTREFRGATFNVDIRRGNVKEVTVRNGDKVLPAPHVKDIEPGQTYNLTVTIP
T2 sequence (Q7S555 entry or part of it): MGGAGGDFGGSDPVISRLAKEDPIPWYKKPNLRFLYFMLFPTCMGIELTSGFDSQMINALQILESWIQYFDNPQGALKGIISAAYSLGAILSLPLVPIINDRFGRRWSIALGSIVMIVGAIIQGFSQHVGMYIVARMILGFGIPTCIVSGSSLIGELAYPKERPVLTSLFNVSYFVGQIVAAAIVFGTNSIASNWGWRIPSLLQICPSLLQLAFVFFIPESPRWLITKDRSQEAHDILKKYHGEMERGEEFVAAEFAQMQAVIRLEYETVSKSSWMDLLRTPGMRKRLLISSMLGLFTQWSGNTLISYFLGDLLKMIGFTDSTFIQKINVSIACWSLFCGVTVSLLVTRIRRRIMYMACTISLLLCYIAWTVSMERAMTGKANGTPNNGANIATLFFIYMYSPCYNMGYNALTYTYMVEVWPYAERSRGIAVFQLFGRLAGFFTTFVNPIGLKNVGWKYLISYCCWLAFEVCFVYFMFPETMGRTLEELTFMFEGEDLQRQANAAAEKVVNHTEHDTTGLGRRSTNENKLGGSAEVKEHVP

Regarding `O=C(O)[C@H](O)[C@@H](O)[C@H](O)[C@H](O)CO` [A1, gluconic acid], the “gluconokinase assay, HPAEC of products” value in assay [1] is “YDR248C has gluconokinase activity in vitro”.

For the molecule `O=C(O)[C@H](O)[C@@H](O)[C@H](O[C@@H]1O[C@H](CO)[C@@H](O)[C@H](O)[C@H]1O)[C@H](O)CO` [A2, cellobionic acid], the “yeast cell-based uptake assay, HPAEC of remaining sugar” value in assay [2] was “only NCU05853 [...] was capable of transporting cellobionic acid into the cell”. Further, the “phosphorolysis, HPAEC of products” value in assay [3] is “specifically cleaved cellobionic acid to gluconic acid and glucose 1-phosphate”.
